Source: PubChem BioAssay AID330 (DTP/NCI, 2004)
“And” between values parts separate entries of the source, which are not always exact repeats. Equal entries are not always repeated. Inconclusive results and toxic doses are left out. Rule for the calls: active = survival T/C of 150% or more; inactive = T/C below 125% in these data.

System: P388 leukemia ip, CD2F1 mice, survival T/C
Assay: NCI In Vivo Anticancer Drug Screen. Data for tumor model P388 Leukemia (intraperitoneal) in CD2F1 (CDF1) mice
Settings: endpoint: median survival time, higher = longer survival
Outline: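 Mice carrying the transplanted tumor received test compound or vehicle. Survival was recorded in each group, and the value is the treated-group measurement divided by that of the vehicle-treated control group.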

[1] = dose: 60.0 mg/kg/injection, schedule: Q01DX005 (ip), vehicle: Klucel (hydroxypropylcellulose) (HPC)
[2] = dose: 120.0 mg/kg/injection, schedule: Q01DX005 (ip), vehicle: Klucel (hydroxypropylcellulose) (HPC)
[3] = dose: 240.0 mg/kg/injection, schedule: Q01DX005 (ip), vehicle: Klucel (hydroxypropylcellulose) (HPC)
[4] = dose: 50.0 mg/kg/injection, schedule: Q01DX009 (ip), vehicle: Klucel (hydroxypropylcellulose) (HPC)
[5] = dose: 3.12 mg/kg/injection, schedule: Q01DX009 (ip), vehicle: saline with Tween-80
[6] = dose: 6.25 mg/kg/injection, schedule: Q01DX009 (ip), vehicle: saline with Tween-80
[7] = dose: 12.5 mg/kg/injection, schedule: Q01DX009 (ip), vehicle: saline with Tween-80
[8] = dose: 25.0 mg/kg/injection, schedule: Q01DX009 (ip), vehicle: saline with Tween-80
[9] = dose: 100.0 mg/kg/injection, schedule: Q01DX009 (ip), vehicle: saline with Tween-80
[10] = dose: 50.0 mg/kg/injection, schedule: Q01DX009 (ip), vehicle: saline with Tween-80
[11] = dose: 50.0 mg/kg/injection, schedule: Q01DX005 (ip), vehicle: saline with Tween-80
[12] = dose: 100.0 mg/kg/injection, schedule: Q01DX005 (ip), vehicle: saline with Tween-80
[13] = dose: 200.0 mg/kg/injection, schedule: Q01DX005 (ip), vehicle: saline with Tween-80
[14] = dose: 50.0 mg/kg/injection, schedule: Q01DX009 (ip), vehicle: saline
[15] = dose: 100.0 mg/kg/injection, schedule: Q01DX009 (ip), vehicle: saline
[16] = dose: 200.0 mg/kg/injection, schedule: Q01DX009 (ip), vehicle: saline
[17] = dose: 50.0 mg/kg/injection, schedule: Q01DX005 (ip), vehicle: saline
[18] = dose: 100.0 mg/kg/injection, schedule: Q01DX005 (ip), vehicle: saline
[19] = dose: 200.0 mg/kg/injection, schedule: Q01DX005 (ip), vehicle: saline
[20] = dose: 60.0 mg/kg/injection, schedule: Q01DX005 (ip), vehicle: saline with Tween-80
[21] = dose: 120.0 mg/kg/injection, schedule: Q01DX005 (ip), vehicle: saline with Tween-80
[22] = dose: 240.0 mg/kg/injection, schedule: Q01DX005 (ip), vehicle: saline with Tween-80
[23] = dose: 200.0 mg/kg/injection, schedule: Q01DX009 (ip), vehicle: saline with Tween-80

Measured: T/C

c1ccc2c(SCCCCCCCCSc3c4ccccc4nc4ccccc34)c3ccccc3nc2c1
inactive: [1] 101 % of control | [2] 86 % of control | [3] 86 % of control

CCN(CC)Sc1cccc([N+](=O)[O-])c1
inactive: dose: 12.5 mg/kg/injection, schedule: Q01DX009 (ip), vehicle: Klucel (hydroxypropylcellulose) (HPC) 108 % of control | dose: 25.0 mg/kg/injection, schedule: Q01DX009 (ip), vehicle: Klucel (hydroxypropylcellulose) (HPC) 118 % of control | [4] 113 % of control and 119 % of control

CN1CCN(C(=O)/C=C/C(=O)c2ccccc2)CC1
inactive: dose: 30.0 mg/kg/injection, schedule: Q01DX005 (ip), vehicle: Klucel (hydroxypropylcellulose) (HPC) 121 % of control | dose: 30.0 mg/kg/injection, schedule: Q01DX005 (ip), vehicle: saline 108 % of control | dose: 60.0 mg/kg/injection, schedule: Q01DX005 (ip), vehicle: saline 106 % of control and 109 % of control

CCNCc1c(C)[nH]c2ccccc2c1=O
inactive: [5] 100 % of control | [6] 101 % of control | [7] 102 % of control | [8] 105 % of control | [9] 91 % of control

Cc1[nH]cnc1CSCCN=C(N)n1[nH]cc(C)c1=O
inactive: [1] 111 % of control | [2] 100 % of control | [3] 99 % of control

C=C(C)C(=O)OCC1CO1 (stereo not drawn)
inactive: dose: 50.0 mg/kg/injection, schedule: Q01DX009 (ip), vehicle: water 100 % of control | dose: 100.0 mg/kg/injection, schedule: Q01DX009 (ip), vehicle: water 108 % of control | dose: 200.0 mg/kg/injection, schedule: Q01DX009 (ip), vehicle: water 120 % of control

C(=C\CN1CCOCC1)/Cc1cccnc1
inactive: [5] 99 % of control and 100 % of control | [6] 100 % of control | [7] 100 % of control and 104 % of control | [8] 100 % of control (2×) and 102 % of control | [10] 103 % of control and 109 % of control

COC1/C=C/OC2(C)Oc3c(C)c(O)c4c(c3C2=O)C(=O)c2cnc(nc2C4=O)/C(C)=C\C=C\C(C)C(O)C(C)C(O)C(C)C(OC(C)=O)C1C (stereo not drawn)
inactive: dose: 25.0 mg/kg/injection, schedule: Q01DX009 (ip), vehicle: other 93 % of control | dose: 50.0 mg/kg/injection, schedule: Q01DX009 (ip), vehicle: other 107 % of control | dose: 100.0 mg/kg/injection, schedule: Q01DX009 (ip), vehicle: other 116 % of control

CC(C)N1C(=O)C2C3C=CC(C3)C2C1=O (stereo not drawn)
inactive: dose: 25.0 mg/kg/injection, schedule: Q04DX002 (ip), vehicle: saline with Tween-80 94 % of control | dose: 50.0 mg/kg/injection, schedule: Q04DX002 (ip), vehicle: saline with Tween-80 108 % of control

[O-][n+]1c2ccccc2[n+]([O-])c2c3ccccc3[nH]c21
inactive: [11] 95 % of control | [12] 95 % of control | [13] 88 % of control

COc1ccc(/C(C)=N/OC(=O)c2sc3ccccc3c2Cl)cc1CN1CCOCC1
inactive: [14] 93 % of control | [15] 97 % of control | [16] 100 % of control

CC1Cc2ccc(OCCN(C)C)cc2C1O (stereo not drawn)
inactive: [17] 104 % of control | [18] 102 % of control | [19] 104 % of control

CCCCCCCCCCCCCCCCOCC(COP(=O)([O-])OCC[N+](C)(C)C)OCCCCCCCCCCCCCCCC (stereo not drawn)
inactive: [20] 97 % of control | [21] 100 % of control | [22] 104 % of control

O=C(Cn1nnc(N2CCOCC2)n1)N/N=C/c1ccccc1Cl
inactive: [1] 91 % of control | [2] 87 % of control | [3] 87 % of control

c1ccc(-c2nc3ccccc3nc2-c2ccc(Sc3ccc(-c4nc5ccccc5nc4-c4ccccc4)cc3)cc2)cc1
inactive: [6] 96 % of control | [7] 93 % of control | [8] 90 % of control

CCCCC(=O)/C=C/c1ccc(Cl)c(Cl)c1
inactive: [4] 98 % of control | dose: 100.0 mg/kg/injection, schedule: Q01DX009 (ip), vehicle: Klucel (hydroxypropylcellulose) (HPC) 90 % of control | dose: 200.0 mg/kg/injection, schedule: Q01DX009 (ip), vehicle: Klucel (hydroxypropylcellulose) (HPC) 95 % of control

NOCc1cccc(Cl)c1
inactive: [8] 87 % of control | [9] 87 % of control

Oc1c(C(c2ccccc2)N2CCOCC2)ccc2ccccc12 (stereo not drawn)
inactive: [10] 109 % of control | [9] 109 % of control | [23] 104 % of control

C=CC(=NC(C)(C)C)Nc1ccc(Cl)cc1
inactive: [10] 100 % of control | [9] 94 % of control | [23] 97 % of control

CC1=NOC(=O)/C1=C/c1ccc2c(c1)OCO2
inactive: [11] 106 % of control | [12] 105 % of control | [13] 113 % of control

Cc1cc(C)nc(NS(=O)(=O)c2ccc(N=Cc3c4ccccc4nc4cc(Cl)ccc34)cc2)n1
inactive: [11] 93 % of control | [12] 93 % of control | [13] 93 % of control

COC(=O)CC(C)CC(=O)O (stereo not drawn)
inactive: [10] 100 % of control | [9] 107 % of control | [23] 100 % of control

O=c1c(-c2cccc(O)c2O)coc2cc(OC3OC(CO)C(O)C(O)C3O)ccc12 (stereo not drawn)
inactive: [20] 100 % of control | [21] 100 % of control | [22] 97 % of control

COc1ccc2c(c1)c(CC(N)=O)c(C)n2C(=O)c1ccc(Cl)nc1
inactive: dose: 52.75 mg/kg/injection, schedule: Q01DX005 (ip), vehicle: saline with Tween-80 94 % of control | dose: 105.5 mg/kg/injection, schedule: Q01DX005 (ip), vehicle: saline with Tween-80 92 % of control

Cc1nc(Br)c(Br)n1C
inactive: [20] 93 % of control | [21] 88 % of control

C/C(=N/NC(=O)c1ccccc1)C(=NO)/C(C)=N\NC(=O)c1ccccc1
inactive: dose: 100.0 mg/kg/injection, schedule: Q01DX001 (ip), vehicle: saline 100 % of control | dose: 200.0 mg/kg/injection, schedule: Q01DX001 (ip), vehicle: saline 97 % of control | dose: 400.0 mg/kg/injection, schedule: Q01DX001 (ip), vehicle: saline 100 % of control

O=C1C(c2ccccc2)=C(c2ccccc2)C2(c3ccccc3)C=NNC12c1ccccc1 (stereo not drawn)
inactive: dose: 6.25 mg/kg/injection, schedule: Q01DX005 (ip), vehicle: Klucel (hydroxypropylcellulose) (HPC) 95 % of control | dose: 12.5 mg/kg/injection, schedule: Q01DX005 (ip), vehicle: Klucel (hydroxypropylcellulose) (HPC) 92 % of control

CC1=CC2(C)C3C=C(C)C(C2C(=O)C1=O)C(C)(O)C3=O (stereo not drawn)
inactive: [11] 97 % of control | [12] 106 % of control | [13] 106 % of control

CCCCCCCCCCCCCCCCCCCCCCCCCCCCCCO
inactive: [8] 86 % of control | [10] 101 % of control | [9] 96 % of control | [23] 92 % of control

N#Cc1cnn(-c2ccc([N+](=O)[O-])cc2[N+](=O)[O-])c1N
inactive: [14] 101 % of control | [15] 100 % of control | [16] 108 % of control

CN1c2c(C(=O)Nc3nccs3)nn(-c3ccccc3)c2-c2ccccc2S1(=O)=O
inactive: [17] 89 % of control | [18] 92 % of control | [19] 99 % of control
